Reference: PubChem BioAssay (NCI)
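Exposure lasted 48 hours, with cells grown in 96-well plates and compounds tested at five concentrations. TGI: concentration producing complete growth inhibition.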 Where a SMILES comes first, the peptide text is derived from it. The star is where a group is joined. Boc = CC(C)(C)OC(=O)*; Bz = O=C(c1ccccc1)*

Legend:
Test in all cases: DTP human tumour cell line panel, 48 h
[1] = system: SK-MEL-2 melanoma
[2] = system: RPMI-8226 leukemia
[3] = system: SNB-19 CNS
[4] = system: HCT-116 colon
[5] = system: SF-268 CNS
[6] = system: HT29 colon
[7] = system: MOLT-4 leukemia
[8] = system: MDA-MB-231 breast
[9] = system: PC-3 prostate
[10] = system: A549 NSCLC
[11] = system: NCI-H23 lung
[12] = system: KM12 colon
[13] = system: M14 melanoma
[14] = system: OVCAR-3 ovarian
[15] = system: OVCAR-4 ovarian
[16] = system: HOP-92 NSCLC
[17] = system: HCT-15 colon
[18] = system: SNB-75 CNS
[19] = system: DU-145 prostate
[20] = system: SK-MEL-5 melanoma
[21] = system: NCI-H226 lung
[22] = system: HL-60(TB) leukemia
[23] = system: MDA-N
[24] = system: OVCAR-5 ovarian
[25] = system: HCC-2998 colon
[26] = system: CCRF-CEM leukemia
[27] = system: TK-10 renal
[28] = system: MDA-MB-435
[29] = system: ACHN renal
[30] = system: 786-0 renal
[31] = system: MALME-3M melanoma
[32] = system: UO-31 renal
[33] = system: U251 CNS
[34] = system: BT-549 breast
[35] = system: SK-MEL-28 melanoma
[36] = system: SK-OV-3 ovarian
[37] = system: K-562 leukemia
[38] = system: NCI/ADR-RES ovarian
[39] = system: LOX IMVI melanoma
[40] = system: OVCAR-8 ovarian
[41] = system: NCI-H522 lung
[42] = system: UACC-62 melanoma
[43] = system: SR leukemia
[44] = system: SF-539 CNS
[45] = system: IGROV1 ovarian
[46] = system: SW-620 colon
[47] = system: A498 renal
[48] = system: UACC-257 melanoma
[49] = system: CAKI-1 renal
[50] = system: RXF 393 renal
[51] = system: HS 578T breast
[52] = system: MCF7 breast
[53] = system: COLO 205 colon
[54] = system: SN12C renal
[55] = system: HOP-62 NSCLC
[56] = system: SF-295 CNS
[57] = system: T-47D breast
[58] = system: NCI-H460 lung
[59] = system: EKVX NSCLC

CN(C)CCOc1ccc2[nH]c(C(=O)N3CC(CCl)c4c3cc(N)c3ccccc43)cc2c1 (configuration not stated)
TGI [1]: < 0.01 µM | TGI [2]: < 0.01 µM | TGI [3]: 0.202 µM | TGI [4]: 3.63 µM | TGI [5]: > 4.64 µM | TGI [6]: 1.71 µM | TGI [7]: < 0.01 µM | TGI [8]: > 100 µM | TGI [9]: 3.66 µM | TGI [10]: 13.2 µM | TGI [11]: < 0.01 µM | TGI [12]: < 0.01 µM | TGI [13]: > 100 µM | TGI [14]: < 0.01 µM | TGI [15]: 1.18 µM | TGI [16]: < 0.01 µM | TGI [17]: > 46.9 µM | TGI [18]: < 0.215 µM | TGI [19]: 0.0525 µM | TGI [20]: < 0.01 µM | TGI [21]: < 0.01 µM | TGI [22]: > 100 µM | TGI [23]: < 0.01 µM | TGI [24]: > 100 µM | TGI [25]: < 0.01 µM | TGI [26]: > 100 µM | TGI [27]: > 4.64 µM | TGI [28]: < 0.01 µM | TGI [29]: < 0.01 µM | TGI [30]: < 0.01 µM | TGI [31]: < 0.01 µM | TGI [32]: < 0.01 µM | TGI [33]: 1.1 µM | TGI [34]: 1.64 µM | TGI [35]: < 0.01 µM | TGI [36]: < 0.01 µM | TGI [37]: > 4.64 µM

Cc1ccc2c3c1O[C@H]1c4[nH]c5ccccc5c4C[C@@]4(O)[C@@H](C2)N(C)CC[C@]314
TGI [1]: 35.3 µM | TGI [2]: 31.6 µM | TGI [3]: 34.3 µM | TGI [38]: 35.8 µM | TGI [4]: 31 µM | TGI [5]: 34.7 µM | TGI [6]: 25.6 µM | TGI [7]: 36.7 µM | TGI [8]: 28.5 µM | TGI [9]: 33.6 µM | TGI [10]: 32.9 µM | TGI [11]: 40.4 µM | TGI [39]: 29.6 µM | TGI [40]: 34.8 µM | TGI [12]: 33.8 µM | TGI [13]: 31.1 µM | TGI [15]: 34 µM | TGI [41]: 36 µM | TGI [16]: 23.2 µM | TGI [17]: 32.5 µM | TGI [42]: 31.1 µM | TGI [43]: 41.9 µM | TGI [19]: 39 µM | TGI [20]: 28.2 µM | TGI [21]: 23.1 µM | TGI [44]: 31.9 µM | TGI [45]: 34.9 µM | TGI [22]: 30.7 µM | TGI [23]: 33.3 µM | TGI [24]: 38.2 µM | TGI [26]: 35 µM | TGI [46]: 30.1 µM | TGI [47]: 32.3 µM | TGI [28]: 28.3 µM | TGI [48]: 28.2 µM | TGI [29]: 29.5 µM | TGI [49]: 34.4 µM | TGI [50]: 22.7 µM | TGI [30]: 29.8 µM | TGI [31]: 29.3 µM | TGI [51]: 21.5 µM | TGI [52]: 30 µM | TGI [32]: 27.1 µM | TGI [33]: 29.5 µM | TGI [34]: 31.8 µM | TGI [37]: 36.8 µM | TGI [53]: 30.2 µM | TGI [54]: 39.4 µM

CC(NC(=O)C(Cc1ccc(OC(=O)c2ccccc2)cc1)NC(=O)OC(C)(C)C)C(=O)NC(Cc1ccccc1)C(=O)NCC(N)=O (configuration not stated) (Boc-Y(Bz)AFG-NH2; configuration not given here)
TGI [1]: 35.6 µM | TGI [2]: 59.7 µM | TGI [3]: 36.5 µM | TGI [38]: > 100 µM | TGI [4]: 91.6 µM | TGI [5]: 43 µM | TGI [6]: 34.4 µM | TGI [7]: > 100 µM | TGI [8]: 36.5 µM | TGI [55]: 31.4 µM | TGI [9]: 37.3 µM | TGI [10]: 55 µM | TGI [11]: 45.9 µM | TGI [39]: 49.5 µM | TGI [40]: 58.8 µM | TGI [12]: > 100 µM | TGI [13]: 34 µM | TGI [15]: 47.2 µM | TGI [41]: 42.6 µM | TGI [16]: 50.9 µM | TGI [17]: > 100 µM | TGI [18]: 49.6 µM | TGI [42]: 37.3 µM | TGI [19]: 42.3 µM | TGI [20]: 81.7 µM | TGI [21]: 51 µM | TGI [44]: 68.3 µM | TGI [45]: 40.7 µM | TGI [22]: 82 µM | TGI [23]: 79.4 µM | TGI [24]: 40.3 µM | TGI [25]: 38.5 µM | TGI [56]: 40.1 µM | TGI [26]: > 100 µM | TGI [27]: 41.4 µM | TGI [46]: > 100 µM | TGI [47]: 41.9 µM | TGI [28]: 47.4 µM | TGI [48]: 37 µM | TGI [57]: 50.7 µM | TGI [29]: 54.6 µM | TGI [49]: > 100 µM | TGI [50]: 46.4 µM | TGI [30]: 43.5 µM | TGI [31]: 42 µM | TGI [51]: 47 µM | TGI [58]: 33.7 µM | TGI [52]: 40.8 µM | TGI [32]: 35.2 µM | TGI [33]: 35.1 µM | TGI [34]: 37.4 µM | TGI [35]: > 100 µM | TGI [36]: 39.4 µM | TGI [37]: 57.4 µM | TGI [53]: 84.8 µM | TGI [54]: 42 µM

CC1=NCCN=C(C)C1N=Nc1ccc2nc(C)[nH]c2c1
TGI [1]: 46.3 µM | TGI [2]: 17.4 µM | TGI [3]: 28.7 µM | TGI [38]: 47.9 µM | TGI [4]: 38 µM | TGI [5]: 46.4 µM | TGI [6]: 50.9 µM | TGI [7]: 23.6 µM | TGI [8]: 31.2 µM | TGI [55]: 61.1 µM | TGI [9]: 22.3 µM | TGI [10]: 19.6 µM | TGI [11]: 44.2 µM | TGI [39]: 98.8 µM | TGI [40]: 85.1 µM | TGI [12]: 30.9 µM | TGI [59]: 39.6 µM | TGI [13]: 16.8 µM | TGI [14]: 44.3 µM | TGI [15]: 30.6 µM | TGI [41]: 61.8 µM | TGI [16]: 22.5 µM | TGI [17]: > 100 µM | TGI [18]: 33.1 µM | TGI [42]: 31.5 µM | TGI [19]: 30.9 µM | TGI [21]: 44.1 µM | TGI [44]: 42.5 µM | TGI [45]: 70.7 µM | TGI [22]: 9.33 µM | TGI [23]: 29.3 µM | TGI [24]: 39.9 µM | TGI [25]: 41.1 µM | TGI [56]: 31.5 µM | TGI [26]: 16.8 µM | TGI [27]: 42.9 µM | TGI [46]: 33.4 µM | TGI [47]: 18 µM | TGI [28]: 22.3 µM | TGI [48]: 28.6 µM | TGI [57]: 47.5 µM | TGI [29]: 32.1 µM | TGI [49]: 36 µM | TGI [50]: 40.1 µM | TGI [30]: 33.5 µM | TGI [31]: 41.5 µM | TGI [51]: 57.5 µM | TGI [58]: 52.1 µM | TGI [52]: 30.1 µM | TGI [33]: > 100 µM | TGI [34]: 28.2 µM | TGI [35]: 24.2 µM | TGI [36]: 39.2 µM | TGI [37]: 20.1 µM | TGI [53]: 53.6 µM | TGI [54]: 30.9 µM
